Reference: PMC4865845, “A human genome-wide loss-of-function screen identifies effective chikungunya antiviral drugs” (Nature Communications, 2016)

Tested on: CHIKV
Type: cell-based, chikungunya virus

Row | Substance | Score_si1 | Score_si2 | Score_si4 | Score_si3
1 | Hs_ACO2_5 (CGGGAAGACATTGCCAATCTA; chemistry not given here) | 2.43 |  |  | 
2 | Hs_ACYP1_1 (AAGGATTACCACTGTACACAA; chemistry not given here) [reference compound] | -2.79 |  |  | 
3 | Hs_ADPRHL1_1 (CCCGACAATTATGATGCAGAA; chemistry not given here) [reference compound] | -2.15 |  |  | 
4 | Hs_ANKRD9_1 (AAGAGAGGTATGGGACCTGAA; chemistry not given here) | 2.5 |  |  | 
5 | Hs_ANKRD9_2 (CTCCCAGGAGCTAACGTATAA; chemistry not given here) |  | 2.08 |  | 
6 | Hs_AOF2_2 (ACATCTTACCTTAGTCATCAA; chemistry not given here) |  |  | 0.88 | 
7 | Hs_AOF2_3 (ACGAGTTGCCACATTTCGCAA; chemistry not given here) |  |  |  | 1.26
8 | Hs_AP2M1_3 (ACGTGTGACTTCGTCCAGTTA; chemistry not given here) | 2.57 |  |  | 
9 | Hs_AP3S2_1 (TGGGATGGTGTTGGAAACAAA; chemistry not given here) |  | 1.11 |  | 
10 | Hs_AP3S2_2 (CAGGGCTTAGGCGCCCATAAA; chemistry not given here) | 1.97 |  |  | 
11 | Hs_APEX2_3 (AGGGCCCTTCATCGATAGCTA; chemistry not given here) [reference compound] | -3.29 |  |  | 
12 | Hs_APEX2_5 (ACGCTGCAGCACAACAATCAA; chemistry not given here) [reference compound] |  |  | -0.1 | 
13 | Hs_APPL_2 (CAGGAATTTCTACAATAATAA; chemistry not given here) [reference compound] | -2.3 |  |  | 
14 | Hs_APPL_3 (TAGGAATAGGATAATGATATA; chemistry not given here) [reference compound] |  | -1.06 |  | 
15 | Hs_AQP3_2 (CTGGATGTACATACATAAGTA; chemistry not given here) |  |  |  | 1.09
16 | Hs_AQP3_3 (CTGGATCAAGCTGCCCATCTA; chemistry not given here) | 1.31 |  |  | 
17 | Hs_ASH2L_1 (CCGAGTAACTAACTTATTTAA; chemistry not given here) |  | 1.07 |  | 
18 | Hs_ASH2L_3 (TTGGAACACCCGTTTAACAAA; chemistry not given here) | 1.11 |  |  | 
19 | Hs_ATF1_6 (AACCTAGTACATTACTAAATA; chemistry not given here) [reference compound] |  |  | -0.75 | 
20 | Hs_ATF1_7 (CCAATAAATTCTAAATTACAA; chemistry not given here) [reference compound] |  | -1.38 |  | 
21 | Hs_ATF1_8 (CTGCATCAGGAGATATGCAAA; chemistry not given here) [reference compound] | -1.45 |  |  | 
22 | Hs_ATP6AP2_1 (ATGGGCTAATATGGATACTAA; chemistry not given here) |  | 0.84 |  | 
23 | Hs_ATP6AP2_2 (AAGAGTGTATATGGTAGGGAA; chemistry not given here) |  |  | 0.62 | 
24 | Hs_ATP6AP2_3 (AAGGACTATCCTTGAGGCAAA; chemistry not given here) | 1.26 |  |  | 
25 | Hs_ATP6AP2_5 (CAAGTGCTACATGATATTTCA; chemistry not given here) |  |  |  | 0.69
26 | Hs_ATP6V0C_2 (CTGGATGTTTATTTATAAAGA; chemistry not given here) | 3.5 |  |  | 

Row | Substance | Score_si1 | Score_si2 | Score_si4 | Score_si3
27 | Hs_BCHE_2 (CGGGTTGAAAGAGTTATTGTA; chemistry not given here) |  | 0.74 |  | 
28 | Hs_BCHE_3 (CAGGAGTGAGTGAGTTTGGAA; chemistry not given here) |  |  |  | 0.6
29 | Hs_BCHE_4 (CAGAACGTTGAACTTAGCTAA; chemistry not given here) | 0.93 |  |  | 
30 | Hs_BOP1_2 (CTGCCATGGCATGGTGTACAA; chemistry not given here) |  | 2.23 |  | 
31 | Hs_BRD8_1 (TGCAATGACATTGCAACGAAA; chemistry not given here) |  |  | 0.57 | 
32 | Hs_BRD8_4 (CCGGCTGTCTCCACTACTGAA; chemistry not given here) | 2.93 |  |  | 
33 | Hs_C14orf160_1 (AAAGATTTGAATTATAAATAA; chemistry not given here) [reference compound] |  |  |  | -1.03
34 | Hs_C14orf160_2 (ATGGAGTTACTGAAATGTATA; chemistry not given here) [reference compound] |  | -1.06 |  | 
35 | Hs_C15orf15_1 (CAGCATTTGTATAGTAACTAA; chemistry not given here) | 1.89 |  |  | 
36 | Hs_CAB39L_2 (GCCAATGTCTTTGGACTGTAA; chemistry not given here) | 2.37 |  |  | 
37 | Hs_CALM2_5 (ACAAAGGAATTGGGAACTGTA; chemistry not given here) |  |  | 0.05 | 
38 | Hs_CALM2_7 (CAAAGGAATTGGGAACTGTAA; chemistry not given here) | 3.2 |  |  | 
39 | Hs_CAMKK2_3 (TAGCAGCATGTCCTACGGAAA; chemistry not given here) |  |  | 1.01 | 
40 | Hs_CAMKK2_4 (sense ACAGAAAGGGCTTGAAATTTA; chemistry not given here) |  |  |  | 1.25
41 | Hs_CAMKK2_6 (sense CCGCAAGATCTTCTCTGGGAA; chemistry not given here) | 1.65 |  |  | 
42 | Hs_CAMKK2_7 (sense CTAGCTGATTGTTGTGGTCAA; chemistry not given here) |  | 1.31 |  | 
43 | Hs_CCDC6_1 (sense ATGGATAATTATCGTATATTA; chemistry not given here) [reference compound] | -2.65 |  |  | 
44 | Hs_CCDC6_2 (sense CAGGAATTTCAGGTCAACAAA; chemistry not given here) [reference compound] |  | -0.83 |  | 
45 | Hs_CCNF_2 (sense AACCCAAGCGTTGGAACTGTA; chemistry not given here) | 2.05 |  |  | 
46 | Hs_CCNF_3 (sense CACAGATGGCGTCAATGTGAA; chemistry not given here) |  | 1.09 |  | 
47 | Hs_CCNF_7 (sense CACGGACAACACTTACAAGTA; chemistry not given here) |  |  |  | 0.92
48 | Hs_CDC25A_1 (sense AAGGCGCTATTTGGCGCTTCA; chemistry not given here) |  | 1.56 |  | 
49 | Hs_CDK4_1 (sense CCGAACTGACCGGGAGATCAA; chemistry not given here) |  | 1.51 |  | 
50 | Hs_CDK4_2 (sense CAAGGTAACCCTGGTGTTTGA; chemistry not given here) | 1.6 |  |  | 
51 | Hs_CDK4_3 (sense ACCCTGGTGTTTGAGCATGTA; chemistry not given here) |  |  |  | 1.02
52 | Hs_CGI-12_1 (sense AAGATGTTAACTGCAAATAAA; chemistry not given here) [reference compound] | -2.28 |  |  | 

Row | Substance | Score_si1 | Score_si2 | Score_si4 | Score_si3
53 | Hs_CHD8_1 (sense CAGGAGGTTATTGGAGACCAA; chemistry not given here) |  | 1.61 |  | 
54 | Hs_CHD8_2 (sense AAGGATAAGAGGATACATCAA; chemistry not given here) |  |  |  | 1.53
55 | Hs_CIZ1_1 (sense CAGGTGAGGTCCAGAGATATA; chemistry not given here) [reference compound] | -1.69 |  |  | 
56 | Hs_CIZ1_2 (sense CAGCATGGAAGAGATTCAGAA; chemistry not given here) [reference compound] |  | -1.05 |  | 
57 | Hs_CLCN6_2 (sense CCGGTGAATGTTATTGGAATT; chemistry not given here) |  |  |  | -0.01
58 | Hs_CLCN6_4 (sense AAGATGTGAATTCAAGTATCA; chemistry not given here) | 2.72 |  |  | 
59 | Hs_CLK1_2 (sense AACGTGATGAACGCACCTTAA; chemistry not given here) |  |  |  | 1.36
60 | Hs_CLK1_4 (sense CCGTATTTCCAACACACGATA; chemistry not given here) |  |  | 0.91 | 
61 | Hs_CLPP_1 (sense CACGATGCAGTACATCCTCAA; chemistry not given here) |  |  | 0.97 | 
62 | Hs_CLPP_3 (sense GCCCATCCACATGTACATCAA; chemistry not given here) |  |  |  | 1.41
63 | Hs_CLTC_11 (sense ACAGTTCTACTTAGAATTCAA; chemistry not given here) | 2.42 |  |  | 
64 | Hs_CLTC_12 (sense CCGGAGAGATTTCTTCGTGAA; chemistry not given here) |  | 2.21 |  | 
65 | Hs_CNOT1_1 (sense CAGCTGGAATGGCTATGATTA; chemistry not given here) |  | 2.61 |  | 
66 | Hs_CNOT1_2 (sense CCAAGTTTGAATTTCAAGGAA; chemistry not given here) | 2.81 |  |  | 
67 | Hs_CNOT3_1 (sense CTCGGACACTGTGGAATTCTA; chemistry not given here) | 2.54 |  |  | 
68 | Hs_CNOT3_2 (sense ACGGCTGAGGGACCAAATCAA; chemistry not given here) |  |  |  | 1.32
69 | Hs_COPG_2 (sense CAGGAAAGGGACATTGTAAAT; chemistry not given here) |  | 2.25 |  | 
70 | Hs_COPS2_1 (sense CACGATATACTGCACTAGATA; chemistry not given here) |  | 1.3 |  | 
71 | Hs_COPS2_3 (sense ATGAATAGATATAAGCAGCTA; chemistry not given here) | 2.07 |  |  | 
72 | Hs_COPS2_4 (sense ATCCATTAATTCTATTCTTGA; chemistry not given here) |  |  | 1.19 | 
73 | Hs_CRSP7_1 (sense TACGGTTAACTTGGACGGGCA; chemistry not given here) [reference compound] |  | -1.45 |  | 
74 | Hs_CRSP7_2 (sense GAGAAATACCCTATTACCAAA; chemistry not given here) [reference compound] | -1.9 |  |  | 
75 | Hs_CRSP8_1 (sense AACGAGAATGTCTACACAGAA; chemistry not given here) [reference compound] | -2.6 |  |  | 
76 | Hs_CRSP8_2 (sense TCGAACAATAGTAAAGGGATA; chemistry not given here) [reference compound] |  | -1.08 |  | 
77 | Hs_CSNK1A1_3 (sense AAGAACTTAATTTCAGTATAA; chemistry not given here) |  |  |  | 1.65
